Experimental data taken from patent US6369069B1 (Aventis Pharma Deutschland GmbH, priority 1998, dated 2002).

Each molecule was assayed on Na^+-dependent Cl^−/HCO3^− exchanger (NCBE) (assay: Inhibition of the Na+-dependent Cl−/HCO3− exchanger (NCBE) in human endothelial cells (pHi recovery, BCECF fluorescence, FLIPR)). Settings: 10 μM.
Format: cell-based
Procedure: Inhibition of the Na^+-dependent Cl^−/HCO3^− exchanger (NCBE) in human endothelial cells
Human endothelial cells (ECV-304) were detached form culture flasks with the aid of trypsin/EDTA buffer (0.05/0.02% in phosphate buffer) and, after centrifugation (100 g, 5 min), taken up in a buffered saline solution (mmol/l: 115 NaCl, 20 NH4Cl, 5 KCl, 1 CaCl2, 1 MgSO4, 20 N-(2-hydroxyethyl)-piperazine-N[…]-2-ethanesulfonic acid (HEPES), 5 glucose and 1 g/l of bovine serum albumin; pH 7.4). This cell suspension was incubated at 37 °C. for 20 min with 5 μM BCECF acetoxymethyl ester. The cells were then washed and resuspended in a sodium- and bicarbonate-free buffer solution (mmol/l: 5 HEPES, 133.8 choline chloride, 4.7 KCl, 1.25 MgCl2, 0.97 K2HPO4, 0.23 KH2PO4, 5 glucose; pH 7.4).
For the subsequent fluorescence measurement in the FLIPR (Fluorescent Imaging Plate Reader), 100 μl of this cell suspension in each case containing 20,000 cells were added by pipette per well of a 96-well microtiter plate and this microtiter plate was centrifuged (100 g, 5 min). In the FLIPR, 100 μl of buffer solution in each case were then removed from a further prepared microtiter plate and added by pipette to each of the 96 wells of the measuring plate. In this case, for a 100% control, i.e. a recovery of the intracellular pH (pHi) by means of the NCBE, a bicarbonate- and sodium-containing buffer solution (mmol/l: 5 HEPES, 93.8 NaCl, 40 NaHCO3, 4.7 KCl, 1.25 CaCl2, 1.25 MgCl2, 0.97 Na2HPO4, 0.23 NaH2PO4, 5 glucose; pH 7.4) which contained 50 μM HOE 642 was used. For a 0% control, i.e. no pHi recovery at all, a bicarbonate-free, sodium-containing buffer solution (mmol/l: 5 HEPES, 133.8 NaCl, 4.7 KCl, 1.25 CaCl2, 1.25 MgCl2, 0.97 Na2HPO4, 0.23 NaH2PO4, 5 glucose; pH 7.4) to which 50 μM HOE 642 were also added was employed. The compounds according to the invention were added in various concentrations of the sodium- and bicarbonate-containing solution. After addition of the buffer solutions to the dye-loaded acidified cells situated in the measuring plate, the increase in the fluorescence intensity which corresponded to an increase in the pHi was determined in each well of the microtiter plate.
The kinetics were in this case recorded at 35° C. over a period of 2 minutes. The increase in the fluorescence intensities for different concentrations of the compounds according to the invention was related to the two controls and from this the inhibitory action of the substances was determined.

Row | Compound | Residual activity % of the NCBE at 10 μM [%]
1 | COc1ccccc1CN(Cc1ccc(-c2ccccc2S(=O)(=O)NC#N)cc1)C(=O)C(c1ccccc1)c1ccccc1 [Example 114] | 81.7
2 | Cc1ccc(CN(Cc2ccc(-c3ccccc3S(=O)(=O)NC#N)cc2)C(=O)C(c2ccccc2)c2ccccc2)cc1 [Example 115] | 84.0
3 | C[C@H](c1ccccc1)N(Cc1ccc(-c2ccccc2S(=O)(=O)NC#N)cc1)C(=O)C(c1ccccc1)c1ccccc1 [Example 118] | 95.3
4 | N#CNS(=O)(=O)c1ccccc1-c1ccc(CN(Cc2ccc(C(F)(F)F)cc2)C(=O)C(c2ccccc2)c2ccccc2)cc1 [Example 119] | 75.7
5 | COc1ccc(CCN(Cc2ccc(-c3ccccc3S(=O)(=O)NC#N)cc2)C(=O)C(c2ccccc2)c2ccccc2)cc1 [Example 120] | 81.3
6 | N#CNS(=O)(=O)c1ccccc1-c1ccc(CN(Cc2ccccc2Cl)C(=O)Cc2ccccc2)cc1 [Example 121] | 72.1
7 | CC(C)CN(Cc1ccc(-c2ccccc2S(=O)(=O)NC#N)cc1)C(=O)Cc1ccccc1 [Example 122] | 90.6
8 | C[C@@H](c1ccccc1)N(Cc1ccc(-c2ccccc2S(=O)(=O)NC#N)cc1)C(=O)Cc1ccccc1 [Example 123] | 72.2
9 | COc1ccccc1CN(Cc1ccc(-c2ccccc2S(=O)(=O)NC#N)cc1)C(=O)Cc1ccccc1 [Example 124] | 46.5
10 | Cc1ccc(CN(Cc2ccc(-c3ccccc3S(=O)(=O)NC#N)cc2)C(=O)Cc2ccccc2)cc1 [Example 125] | 63.6
11 | COc1cccc(CN(Cc2ccc(-c3ccccc3S(=O)(=O)NC#N)cc2)C(=O)Cc2ccccc2)c1 [Example 126] | 53.7
12 | N#CNS(=O)(=O)c1ccccc1-c1ccc(CN(Cc2ccc3c(c2)OCO3)C(=O)Cc2ccccc2)cc1 [Example 127] | 61.7
13 | C[C@H](c1ccccc1)N(Cc1ccc(-c2ccccc2S(=O)(=O)NC#N)cc1)C(=O)Cc1ccccc1 [Example 128] | 61.4
14 | N#CNS(=O)(=O)c1ccccc1-c1ccc(CN(Cc2ccc(C(F)(F)F)cc2)C(=O)Cc2ccccc2)cc1 [Example 129] | 47.4
15 | COc1ccc(CCN(Cc2ccc(-c3ccccc3S(=O)(=O)NC#N)cc2)C(=O)Cc2ccccc2)cc1 [Example 130] | 77.8
16 | N#CNS(=O)(=O)c1ccccc1-c1ccc(CN(Cc2ccccc2Cl)C(=O)C(C(=O)Cc2ccccc2)c2ccccc2)cc1 (stereo not shown) [Example 131] | 97.6
17 | C[C@@H](c1ccccc1)N(Cc1ccc(-c2ccccc2S(=O)(=O)NC#N)cc1)C(=O)Cc1cccs1 [Example 132] | 63.8
18 | C[C@H](c1ccccc1)N(Cc1ccc(-c2ccccc2S(=O)(=O)NC#N)cc1)C(=O)Cc1cccs1 [Example 133] | 40.9
19 | Cc1ccc(CN(Cc2ccc(-c3ccccc3S(=O)(=O)NC#N)cc2)C(=O)C(C(=O)Cc2ccccc2)c2ccccc2)cc1 (stereo not shown) [Example 135] | 97.4
20 | C[C@@H](c1ccccc1)N(Cc1ccc(-c2ccccc2S(=O)(=O)NC#N)cc1)C(=O)C(C(=O)Cc1ccccc1)c1ccccc1 (stereo partly shown) [Example 136] | 93.6
21 | N#CNS(=O)(=O)c1ccccc1-c1ccc(CN(Cc2ccco2)C(=O)Cc2cccs2)cc1 [Example 139] | 48.5
22 | CN(C)c1ccc(CN(Cc2ccc(-c3ccccc3S(=O)(=O)NC#N)cc2)C(=O)Cc2cccs2)cc1 [Example 140] | 54.2
23 | N#CNS(=O)(=O)c1ccccc1-c1ccc(CN(CCc2cccs2)C(=O)Cc2cccs2)cc1 [Example 141] | 71.1
24 | N#CNS(=O)(=O)c1ccccc1-c1ccc(CN(CCOc2ccccc2)C(=O)Cc2cccs2)cc1 [Example 142] | 27.1
25 | N#CNS(=O)(=O)c1ccccc1-c1ccc(CN(Cc2ccccc2Cl)C(=O)Cc2cccs2)cc1 [Example 143] | 35.7
26 | N#CNS(=O)(=O)c1ccccc1-c1ccc(CN(CC2CC2)C(=O)Cc2cccs2)cc1 [Example 144] | 60.3

Row | Compound | Residual activity % of the NCBE at 10 μM [%]
27 | COc1cc(CN(Cc2ccc(-c3ccccc3S(=O)(=O)NC#N)cc2)C(=O)Cc2cccs2)cc(OC)c1OC [Example 145] | 39.6
28 | N#CNS(=O)(=O)c1ccccc1-c1ccc(CN(Cc2ccncc2)C(=O)Cc2cccs2)cc1 [Example 146] | 69.8
29 | N#CNS(=O)(=O)c1ccccc1-c1ccc(CN(Cc2ccc(F)cc2)C(=O)Cc2cccs2)cc1 [Example 147] | 53.2
30 | N#CNS(=O)(=O)c1ccccc1-c1ccc(CN(Cc2ccco2)C(=O)Cc2ccc(Cl)cc2)cc1 [Example 148] | 45.6
31 | CN(C)c1ccc(CN(Cc2ccc(-c3ccccc3S(=O)(=O)NC#N)cc2)C(=O)Cc2ccc(Cl)cc2)cc1 [Example 149] | 77.4
32 | N#CNS(=O)(=O)c1ccccc1-c1ccc(CN(CCc2cccs2)C(=O)Cc2ccc(Cl)cc2)cc1 [Example 150] | 44.7
33 | N#CNS(=O)(=O)c1ccccc1-c1ccc(CN(CCOc2ccccc2)C(=O)Cc2ccc(Cl)cc2)cc1 [Example 151] | 29.0
34 | N#CNS(=O)(=O)c1ccccc1-c1ccc(CN(Cc2ccccc2Cl)C(=O)Cc2ccc(Cl)cc2)cc1 [Example 152] | 29.5
35 | N#CNS(=O)(=O)c1ccccc1-c1ccc(CN(CC2CC2)C(=O)Cc2ccc(Cl)cc2)cc1 [Example 153] | 46.1
36 | COc1ccc(CN(Cc2ccc(-c3ccccc3S(=O)(=O)NC#N)cc2)C(=O)Cc2ccc(Cl)cc2)c(OC)c1 [Example 154] | 36.2
37 | COc1cc(CN(Cc2ccc(-c3ccccc3S(=O)(=O)NC#N)cc2)C(=O)Cc2ccc(Cl)cc2)cc(OC)c1OC [Example 155] | 34.2
38 | N#CNS(=O)(=O)c1ccccc1-c1ccc(CN(Cc2ccncc2)C(=O)Cc2ccc(Cl)cc2)cc1 [Example 156] | 86.0
39 | N#CNS(=O)(=O)c1ccccc1-c1ccc(CN(Cc2ccc(F)cc2)C(=O)Cc2ccc(Cl)cc2)cc1 [Example 157] | 24.9
40 | CC(C)(C)CC(=O)N(Cc1ccc(-c2ccccc2S(=O)(=O)NC#N)cc1)Cc1ccco1 [Example 158] | 57.9
41 | CC(C)(C)CC(=O)N(CCc1cccs1)Cc1ccc(-c2ccccc2S(=O)(=O)NC#N)cc1 [Example 159] | 61.2
42 | CC(C)(C)CC(=O)N(CCOc1ccccc1)Cc1ccc(-c2ccccc2S(=O)(=O)NC#N)cc1 [Example 160] | 71.6
43 | CC(C)(C)CC(=O)N(Cc1ccc(-c2ccccc2S(=O)(=O)NC#N)cc1)CC1CC1 [Example 161] | 81.6
44 | COc1cc(CN(Cc2ccc(-c3ccccc3S(=O)(=O)NC#N)cc2)C(=O)CC(C)(C)C)cc(OC)c1OC [Example 162] | 30.2
45 | CC(C)(C)CC(=O)N(Cc1ccc(F)cc1)Cc1ccc(-c2ccccc2S(=O)(=O)NC#N)cc1 [Example 163] | 93.4
46 | N#CNS(=O)(=O)c1ccccc1-c1ccc(CN(Cc2ccco2)C(=O)COc2ccccc2)cc1 [Example 164] | 76.4
47 | N#CNS(=O)(=O)c1ccccc1-c1ccc(CN(CCc2cccs2)C(=O)COc2ccccc2)cc1 [Example 165] | 56.8
48 | N#CNS(=O)(=O)c1ccccc1-c1ccc(CN(CCOc2ccccc2)C(=O)COc2ccccc2)cc1 [Example 166] | 57.9
49 | N#CNS(=O)(=O)c1ccccc1-c1ccc(CN(Cc2ccccc2Cl)C(=O)COc2ccccc2)cc1 [Example 167] | 47.5
50 | N#CNS(=O)(=O)c1ccccc1-c1ccc(CN(CC2CC2)C(=O)COc2ccccc2)cc1 [Example 168] | 96.4
51 | COc1ccc(CC(=O)N(CCc2cccs2)Cc2ccc(-c3ccccc3S(=O)(=O)NC#N)cc2)cc1 [Example 172] | 89.7
52 | COc1ccc(CC(=O)N(CCOc2ccccc2)Cc2ccc(-c3ccccc3S(=O)(=O)NC#N)cc2)cc1 [Example 173] | 76.4
